Results as given in article PMC12459020, “Chemical Probes that Target a Dissociative LuxR-Type Quorum Sensing Receptor in Gram-Negative Bacteria” (ACS Chemical Biology, 2025).
Entries after “also recorded” stand apart in the source; their conditions may differ. Where two headings read alike, the source gives them in different places.

How the values were obtained:
ExpR2 = conditions: cited from earlier work; for ExpR2 antagonism (percent inhibition): 5 µM compound against 5 µM OHHL, negative values indicate potential activators; for ExpR2 antagonism (percent inhibition) / IC50: ref 6 (SI; Palmer et al., 2011); for ExpR2 [%] (agonism, percent activation): compounds at 200 μM, cellulase activity in P. versatile AC5099, ref Palmer et al., 2011 (main ref 44, SI ref 6); for IC50: previously reported phenotypic reporter data
EsaR [1] = biological target: T1, EsaR (Pantoea stewartii subsp. stewartii, UniProt P54293); test: cell-based; conditions: for activation at 100 µM / inhibition at 100 µM: 3.5 h; for activation at 100 µM: read-out: EsaR-activated (pesaS) [%] agonism; for inhibition at 100 µM: read-out: EsaR-activated (pesaS) antagonism; for EsaR antagonism, in words: competed against OHHL at approx. EC50
T1 construct: expressed in transfected cells; host or cells: E. coli JLD271 (K12 ΔsdiA), arabinose-induced pJN105-esaR
From the text: (§1) EsaR transcriptional activation and repression were examined using E. coli and P. stewartii reporters (strains and plasmids listed in Table S1; see Methods section for assay details). […] We constructed reporters in E. coli based on previously reported EsaR reporters (Table S1). Each strain contained an EsaR expression plasmid (pJN105-esaR) and a reporter plasmid with either an EsaR-activated promoter (pesaS) or an EsaR-repressed promoter (pesaR) upstream of luxABCDE or GFP.
(§2) Gibson assembly was used to create all constructs. Plasmid pJN105-esaR was created by amplifying esaR from pAC-esaR and inserting it into pJN105. pesaSlux was created by inserting pesaS, amplified from pPesaR-AC:gfp, into the pCS-pesaRlux backbone. The pesaR promoter was amplified from pCS-pesaRlux and inserted into the pPesaR-AC:gfp backbone to create pesaR:GFP. P. stewartii reporter strains were created by transforming pesaR:GFP or pPesaR-AC:gfp into ESN51 by conjugation using E. coli S17 λpir as the donor strain. See SI for details of E. coli ExpR2 reporter construction.
(§3) Overnight cultures were diluted 1:10 in LB medium with appropriate antibiotics and grown at 37 °C (200 rpm) to an OD600 of 0.22–0.27 before induction with 4 mg mL^–1 arabinose. OD600 was measured by placing 200 μL of culture into a 96-well plate and reading optical density using the BioTek Synergy 2 plate reader. Assays were performed in technical triplicate in clear-bottom, white and clear-bottom, black 96-well microtiter plates (Corning Costar 3903 and 3904) for luminescence and fluorescence reporters, respectively. Compounds were dissolved in DMSO, and 2 μL of this stock, or DMSO as a negative control, was added to each well prior to adding 198 μL of induced culture. Plates were incubated at 37 °C (200 rpm) for 3.5 h. Each well was mixed by pipetting before reading OD600 and either luminescence or fluorescence. Single-point screens were performed with one or two biological replicates, and all dose–response curves were performed in biological triplicate. EC50 values were calculated based on a nonlinear regression of log(concentration) vs response (three parameters) using GraphPad Prism 9 software.

EsaR [2] = biological target: T1, EsaR; test: cell-based; conditions: for activation at 100 µM / inhibition at 100 µM: 3.5 h; for activation at 100 µM: read-out: EsaR-repressed (pesaR) [%] agonism; for inhibition at 100 µM: read-out: EsaR-repressed (pesaR) antagonism
From the text: as §1, §2, §3

LuxR = conditions: cited from earlier work; for LuxR antagonism: 5 µM compound against 5 µM OHHL, negative values indicate potential activators, ref 6 (SI; Palmer et al., 2011); for LuxR [%] (agonism, activation): compounds at 200 μM, luminescence in V. fischeri ES114 (ΔluxI), ref Palmer et al., 2011 (main ref 44, SI ref 6)
ExpR1 = conditions: cited from earlier work; for ExpR1 antagonism: 5 µM compound against 5 µM OHHL, negative values indicate potential activators, ref 6 (SI; Palmer et al., 2011); for ExpR1 [%] (agonism, activation): compounds at 200 μM, cellulase activity in P. versatile AC5117, ref Palmer et al., 2011 (main ref 44, SI ref 6)

T1 sequence (P54293 whole entry): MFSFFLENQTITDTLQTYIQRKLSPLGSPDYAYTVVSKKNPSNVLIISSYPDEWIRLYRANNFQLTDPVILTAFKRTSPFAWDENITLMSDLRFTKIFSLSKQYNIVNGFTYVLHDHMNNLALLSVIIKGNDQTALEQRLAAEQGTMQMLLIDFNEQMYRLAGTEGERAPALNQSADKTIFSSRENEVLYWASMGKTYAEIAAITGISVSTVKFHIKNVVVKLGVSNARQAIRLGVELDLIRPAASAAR

In the case of `CCCCCCCCCCCC(=O)CC(=O)N[C@H]1CCOC1=O` [OtDHL, reference compound], the “ExpR2 antagonism (percent inhibition)” value (ExpR2) is given as 7%, the “ExpR2 [%] (agonism, percent activation)” value (ExpR2) is given as 9% and the activation at 100 µM (EsaR [1]) is given as 16%. It also gave an inhibition at 100 µM (EsaR [1]) of -41%, an activation at 100 µM (EsaR [2]) of 13% and an inhibition at 100 µM (EsaR [2]) of -53%. For the same compound, the LuxR antagonism (LuxR) was 5%, the “LuxR [%] (agonism, activation)” value (LuxR) was 4% and the ExpR1 antagonism (ExpR1) was 4%. The “ExpR1 [%] (agonism, activation)” value (ExpR1) was 1%.

In the case of `CCCCCCCCCC(=O)N[C@H]1CCOC1=O` [DHL, reference compound], the “ExpR2 antagonism (percent inhibition)” value (ExpR2) is given as 76%, the “ExpR2 [%] (agonism, percent activation)” value (ExpR2) is given as 44% and the IC50 (ExpR2) is given as 0.9 µM. The activation at 100 µM (EsaR [1]) was 17%, the inhibition at 100 µM (EsaR [1]) was -11% and the activation at 100 µM (EsaR [2]) was 4%. For the same compound, the inhibition at 100 µM (EsaR [2]) was -59%, the LuxR antagonism (LuxR) was 96% and the “LuxR [%] (agonism, activation)” value (LuxR) was 12%. The ExpR1 antagonism (ExpR1) was 91% and the “ExpR1 [%] (agonism, activation)” value (ExpR1) was 6%.

With `CCCCCS(=O)(=O)N[C@H]1CCOC1=O` [A10] the EC50 (EsaR [1]) was 17 µM, the “fold less potent than hexanoyl HL in EsaR” value (EsaR [1]; E. coli EsaR reporter EC50 values) was “about 3 fold” and the EC50 (EsaR [2]) was 17 µM.

With `CCCCCCCCCC(=O)CC(=O)Nc1ccccc1` [V-06–018, reference compound] the “EsaR antagonism, in words” value (EsaR [1]; E. coli EsaR reporters) was “inactive as EsaR antagonists” and the “EsaR antagonism, in words, EsaR-repressed promoter” value (EsaR [2]; E. coli reporter, competed against OHHL at approx. EC50) was “inactive as EsaR antagonists”.

`O=C1OCC[C@@H]1NS(=O)(=O)c1cc(Cl)cc(Cl)c1` [GAF 50] gave an EC50 (EsaR [1]) of 24 µM and an EC50 (EsaR [2]) of 24 µM.

For `COc1cccc(CC(=O)N[C@H]2CCOC2=O)c1` [E2], the “ExpR2 antagonism (percent inhibition)” value (ExpR2) is listed as 59%, the “ExpR2 [%] (agonism, percent activation)” value (ExpR2) is listed as 24% and the activation at 100 µM (EsaR [1]) is listed as 4%. For the same compound, the inhibition at 100 µM (EsaR [1]) was 0%, the activation at 100 µM (EsaR [2]) was 3% and the inhibition at 100 µM (EsaR [2]) was -42%. The LuxR antagonism (LuxR) was 71%, the “LuxR [%] (agonism, activation)” value (LuxR) was 7% and the ExpR1 antagonism (ExpR1) was 68%. The “ExpR1 [%] (agonism, activation)” value (ExpR1) was 4%.

`O=C(CCc1cccc([N+](=O)[O-])c1)N[C@H]1CCOC1=O` [E38] gave an EC50 (EsaR [1]) of at least 64 µM.

For `O=C(COc1ccc(I)cc1)NC1CCCC1` [RN17], the “EsaR antagonism, in words” value (EsaR [1]; E. coli EsaR reporters) was “None of these compounds antagonized EsaR”.

For `O=C(NC1CCCC1)C1CCC1` [RN13], the “EsaR antagonism, in words” value (EsaR [1]; E. coli EsaR reporters) was “None of these compounds antagonized EsaR” and the “EsaR agonism, in words” value (EsaR [1]; E. coli EsaR reporters, primary screen at 100 μM) was “moderate agonist”.

`O=C1OCC[C@@H]1NS(=O)(=O)c1ccc(Cl)c(Cl)c1Cl` [GAF 45] gave an EC50 (EsaR [1]) of 4.7 µM and an EC50 (EsaR [2]) of 4.9 µM.

In the case of `CCCCCCCCCC(=O)NC1CCCC1` [C10-CPA, reference compound], the “EsaR antagonism, in words” value (EsaR [1]; E. coli EsaR reporters) is reported as “did not show antagonism; also recorded: None of these compounds antagonized EsaR”.

With `O=C(Cc1cccc([N+](=O)[O-])c1)NC1CCCC1` [F18] the “EsaR antagonism, in words” value (EsaR [1]; E. coli EsaR reporters) was “None of these compounds antagonized EsaR”.

In the case of `O=C(Cc1ccc(I)cc1)N[C@H]1CCOC1=O` [C10], the “ExpR2 antagonism (percent inhibition)” value (ExpR2) is given as 68%, the “ExpR2 [%] (agonism, percent activation)” value (ExpR2) is given as 19% and the IC50 (ExpR2) is given as 0.9 µM. It also gave an activation at 100 µM (EsaR [1]) of 7%, an inhibition at 100 µM (EsaR [1]) of -5% and an activation at 100 µM (EsaR [2]) of 0.4%. For the same compound, the inhibition at 100 µM (EsaR [2]) was 25%, the ExpR1 antagonism (ExpR1) was 73% and the “ExpR1 [%] (agonism, activation)” value (ExpR1) was 6%.

With `O=C1OCC[C@@H]1NS(=O)(=O)Cc1cccc(Cl)c1` [GAF 33] the “EsaR agonism at 100 μM (bound stated in text)” value (EsaR [1]; 100 μM, E. coli EsaR reporter) was at most 50%.

In the case of `CCCC(=O)NC1CCCC1` [RN4], the “EsaR antagonism, in words” value (EsaR [1]; E. coli EsaR reporters) is reported as “None of these compounds antagonized EsaR”.
